From PMC6271520, “Isolation and Characterization of an α-Glucosidase Inhibitor from Musa spp. (Baxijiao) Flowers” (Molecules, 2014)
Like-named read-outs stand apart in the source and are kept apart here.

What was measured:
[1] = target: T1, α-Glucosidase from Bacillus stearothermophilus (Geobacillus stearothermophilus, UniProt A0ACH1E9U3); assay: α-glucosidase inhibitory activity assay (pNPG substrate, PNP release at 405 nm); format: biochemical; settings: for IC50: pH 6.8, 37 °C, 2.5 mmol/L pNPG
Experimental: Louis, MO, USA). […] All the reagents were of analytical grade. […] Then 0.5 mL of 2.5 mmol/L p-nitrophenyl-α-D-glucopyranoside as the substrate was added to the mixture to start the reaction. The reaction was incubated at 37 °C for 15 min and stopped by adding 1 mL 0.2 mol/L sodium carbonate solution. The α-glucosidase activity was determined by measuring the release of PNP at 405 nm. For the inhibitory activity assay, crude ethanol extracts were dissolved in 50% aqueous dimethyl sulfoxide, while the chloroform, ethyl acetate, and n-butanol fractions and puriﬁed compounds were dissolved in dimethyl sulfoxide. […] The inhibition of the test sample on α-glucosidase was calculated as follows: […] where Acontrol: Absorbance for 100% enzyme activity (+enzyme), Asample: Test sample (+enzyme + inhibitor) and Abackground: Inhibitor background absorbance (−enzyme + inhibitor).

α-glucosidase [2] = target: α-glucosidase; set-up: method as in PMID 17270224; settings: vanillic acid from stem bark of Fagara tessmannii; cited from earlier work
[3] = target: T1, α-Glucosidase from Bacillus stearothermophilus; assay: Lineweaver–Burk plot analysis of inhibition kinetics of α-glucosidase; format: biochemical; settings: for mode of inhibition: Lineweaver–Burk plot, varying pNPG; for Ki: from Vmax at 12.5 and 50.0 mg/L (compound 5), 400 and 800 mg/L (compounds 3 and 4)
Experimental: The mechanism of the binding of compounds 3, 4 and 5 to α-glucosidase was further studied.
The Ki value was calculated using the values of Vmax obtained at 12.5 and 50.0 mg/L for compound 5 and the values of Vmax obtained at 400 and 800 mg/L for compounds 3 and 4, respectively.
To determine the kinetic mode of inhibition of isolated α-glucosidase inhibitors, Lineweaver–Burk plot analysis was performed. This kinetics study was carried out in the presence and absence of inhibitors with varying concentrations of 4-NPGP as the substrate. The mode of inhibition of the test compounds was assessed on the basis of the inhibitory effects on Km (dissociation constant) and Vmax (maximum reaction velocity) of the enzyme determined using a Lineweaver-Burk plot, which is the double reciprocal plot of the enzyme reaction velocity (V) versus the substrate (p-nitrophenyl β-D-glucopyranoside, pNPG) concentration (1/V versus 1/[pNPG]).

α-glucosidase [4] = target: α-glucosidase; set-up: method as in doi:10.1016/j.phytol.2013.08.005; settings: β-sitosterol isolated from Chrozophora plicata; cited from earlier work
[5] = read-out: IC50 (mg/L) (converted)

T1 sequence (A0ACH1E9U3 entry or part of it): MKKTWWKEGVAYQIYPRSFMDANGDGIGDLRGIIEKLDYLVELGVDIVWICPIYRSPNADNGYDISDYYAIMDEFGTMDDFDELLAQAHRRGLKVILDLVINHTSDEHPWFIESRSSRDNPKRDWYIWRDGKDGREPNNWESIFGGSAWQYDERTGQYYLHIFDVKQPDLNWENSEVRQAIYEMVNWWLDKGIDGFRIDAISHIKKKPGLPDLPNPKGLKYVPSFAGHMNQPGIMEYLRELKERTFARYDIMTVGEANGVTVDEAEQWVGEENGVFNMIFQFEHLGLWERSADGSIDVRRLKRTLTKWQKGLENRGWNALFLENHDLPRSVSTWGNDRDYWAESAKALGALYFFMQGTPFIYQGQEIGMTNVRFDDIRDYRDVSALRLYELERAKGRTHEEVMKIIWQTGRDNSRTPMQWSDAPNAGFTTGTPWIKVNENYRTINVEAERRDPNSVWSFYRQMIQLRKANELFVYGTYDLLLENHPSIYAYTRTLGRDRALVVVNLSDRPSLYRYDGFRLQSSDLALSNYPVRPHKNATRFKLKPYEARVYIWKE

Structure (SMILES) | IC50 [1, 5] [µM] | IC50 ([1]; read-out: IC50 (mg/L)) [µM] | mode of inhibition [3] | also measured
C[C@H]1O[C@H](O[C@H]2[C@H](O)[C@@H](O)[C@@H](O[C@H]3[C@H](O)[C@@H](O)C(O)O[C@@H]3CO)O[C@@H]2CO)[C@H](O)[C@@H](O)[C@@H]1N[C@H]1C=C(CO)[C@@H](O)[C@H](O)[C@H]1O (stereo partly drawn) [Acarbose, reference compound] | 1550 |  |  | inhibition at 1500 µg/mL ([1]; at 1.5 mg/mL, read-out: percent inhibition against α-glucosidase): 56.4%
COc1cc(C(=O)O)ccc1O [Compound 1, Vanillic acid] |  | 11900 |  | IC50 (α-glucosidase [2]): 69.4 ± 0.8 µM
COc1cc(/C=C/C(=O)O)ccc1O [Compound 2, Ferulic acid] |  | 6480 |  | 
CC[C@H](CC[C@@H](C)[C@H]1CC[C@H]2[C@@H]3CC=C4C[C@@H](O)CC[C@]4(C)[C@H]3CC[C@]12C)C(C)C [Compound 3, β-Sitosterol] |  | 684 | competitive inhibitors | Ki ([3]; read-out: inhibition constant (Ki)): 48.4 µM; IC50 (α-glucosidase [4]): 287.1 ± 0.75 µM
CC[C@H](CC[C@@H](C)[C@H]1CC[C@H]2[C@@H]3CC=C4C[C@@H](O[C@@H]5O[C@H](CO)[C@@H](O)[C@H](O)[C@H]5O)CC[C@]4(C)[C@H]3CC[C@]12C)C(C)C [Compound 4, Daucosterol] | 429 |  | competitive inhibitors | Ki ([3]; read-out: inhibition constant (Ki) (converted)): 4.06 µM
